# Test results as given in patent publication US11802120B2, “Fused cyclic urea derivatives as CRHR2 antagonist” (RaQualia Pharma Inc., priority 2018, dated 2023).
# Molecular target: T1, human CRHR2-alpha (Homo sapiens, UniProt Q13324)
# T1 sequence (Q13324 1-411): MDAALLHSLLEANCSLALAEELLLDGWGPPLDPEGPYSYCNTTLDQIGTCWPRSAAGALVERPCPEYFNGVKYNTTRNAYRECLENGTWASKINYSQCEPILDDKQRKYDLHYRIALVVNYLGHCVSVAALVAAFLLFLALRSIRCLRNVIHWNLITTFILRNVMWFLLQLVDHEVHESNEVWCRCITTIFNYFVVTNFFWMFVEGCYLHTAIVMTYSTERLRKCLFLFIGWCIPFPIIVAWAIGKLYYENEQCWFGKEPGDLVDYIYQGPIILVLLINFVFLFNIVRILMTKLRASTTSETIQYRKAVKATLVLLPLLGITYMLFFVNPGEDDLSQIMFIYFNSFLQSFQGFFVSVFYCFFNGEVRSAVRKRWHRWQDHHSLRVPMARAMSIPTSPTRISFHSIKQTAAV
# Assay: cAMP functional assay for human CRHR2 (LANCE Ultra cAMP, TR-FRET)
# Type: cell-based
# Settings: CHO-K1 cells expressing human CRHR2-alpha, agonist human urocortin2 at EC80, cAMP; read-out: IC50 against CRHR2
# Outline: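 IC50 values derive from percent inhibition of EC80 agonist-stimulated cAMP in CHO-K1 transfectants, with 0.5 mM IBMX present; the CRHR2 line was stimulated by human urocortin2 and the CRHR1 line by CRF.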
row,IC50,Structure (SMILES)
1,< 0.3 µM,"Cc1ncc(Cl)cc1C(=O)N[C@H]1CC[C@H](Cn2c(=O)n(-c3ccn4ccnc4c3)c3ccccc32)CC1 [Example 272, 5-chloro-N-((1r,4r)-4-((3-(imidazo[1,2-a]pyridin-7-yl)-2-oxo-2,3-dihydro-1H-benzo [d]imidazol-1-yl)methyl)cyclohexyl)-2-methyl-nicotinamide]"
2,< 0.3 µM,"Cc1ncc(Cl)cc1C(=O)N[C@H]1CC[C@H](Cn2c(=O)n(-c3cc(N(C)C)ccc3C#N)c3ccccc32)CC1 [Example 273, 5-chloro-N-((1r,4r)-4-((3-(2-cyano-5-(dimethylamino)phenyl)-2-oxo-2,3-dihydro-1H-benzo[d]imidazol-1-yl)methyl)cyclohexyl)-2-methylnicotinamide]"
3,< 0.3 µM,"Cc1ncc(Cl)cc1C(=O)N[C@H]1CC[C@H](Cn2c(=O)n(-c3ccc4cncn4c3)c3ccccc32)CC1 [Example 274, 5-chloro-N-((1r,4r)-4-((3-(imidazo[1,5-a]pyridin-6-yl)-2-oxo-2,3-dihydro-1H-benzo [d]imidazol-1-yl)methyl)cyclohexyl)-2-methylnico-tinamide]"
4,< 0.3 µM,"Cc1ncc(Cl)cc1C(=O)N[C@H]1CC[C@H](Cn2c(=O)n(-c3cnc4c(c3)nnn4C)c3ccccc32)CC1 [Example 275, 5-chloro-2-methyl-N-((1r,4r)-4-((3-(3-methyl-3H-[1,2,3]triazolo[4,5-b]pyridin-6-yl)-2-oxo-2,3-dihydro-1H-benzo [d]imidazol-1-yl)methyl)cyclohexyl)nicotinamide]"
5,< 0.3 µM,"Cc1ncc(Cl)cc1C(=O)N[C@H]1CC[C@H](Cn2c(=O)n(-c3ccc4c(c3)nnn4CCO)c3ccccc32)CC1 [Example 276, 5-chloro-N-((1r,4r)-4-((3-(1-(2-hydroxyethyl)-1H-benzo[d][1,2,3]triazol-5-yl)-2-oxo-2,3-dihydro-1H-benzo[d]imidazol-1-yl)methyl)cyclohexyl)-2-methylnicotinamide]"
6,< 0.3 µM,"CCn1c(=O)oc2cc(-n3c(=O)n(C[C@H]4CC[C@H](NC(=O)c5cc(Cl)cnc5C)CC4)c4ccccc43)cnc21 [Example 277, 5-chloro-N-((1r,4r)-4-((3-(3-ethyl-2-oxo-2,3-dihydro-oxazolo[4,5-b]pyridin-6-yl)-2-oxo-2,3-dihydro-1H-benzo [d]imidazol-1-yl)methyl)cyclohexyl)-2-methylnico-tinamide]"
7,< 0.3 µM,"Cc1ncc(Cl)cc1C(=O)N[C@H]1CC[C@H](Cn2c(=O)n(-c3ccc4ncnn4c3)c3ccccc32)CC1 [Example 278, N-((1r,4r)-4-((3-([1,2,4]triazolo [1,5-a]pyridin-6-yl)-2-oxo-2,3-dihydro-1H-benzo[d]imidazol-1-yl)methyl)cyclohexyl)-5-chloro-2-methylnicotinamide]"
8,< 0.3 µM,"Cc1ncc(Cl)cc1C(=O)N[C@H]1CC[C@H](Cn2c(=O)n(-c3ccc(C4CCC4)nc3)c3ccccc32)CC1 [Example 279, 5-chloro-N-((1r,4r)-4-((3-(6-cyclobutylpyridin-3-yl)-2-oxo-2,3-dihydro-1H-benzo[d]imidazol-1-yl)methyl)cyclohexyl)-2-methylnicotinamide]"
9,< 0.3 µM,"O=C(N[C@H]1CC[C@H](Cn2c(=O)n(Cc3ccncc3)c3ccccc32)CC1)c1cc(Cl)cnc1C(F)(F)F [Example 280, 5-chloro-N-((1r,4r)-4-((2-oxo-3-(pyridin-4-ylmethyl)-2,3-dihydro-1H-benzo[d]imidazol-1-yl)methyl)cyclohexyl)-2-(trifluoromethyl)nicotinamide]"
10,< 0.3 µM,"O=C(N[C@H]1CC[C@H](Cn2c(=O)n(Cc3ccncc3)c3ccccc32)CC1)c1cc(Cl)ccc1C(F)(F)F [Example 281, 5-chloro-N-((1r,4r)-4-((2-oxo-3-(pyridin-4-ylmethyl)-2,3-dihydro-1H-benzo[d]imidazol-1-yl)methyl)cyclohexyl)-2-(trifluoromethyl)benzamide]"
11,< 0.3 µM,"O=C(N[C@H]1CC[C@H](Cn2c(=O)n(Cc3ccccn3)c3ccccc32)CC1)c1cc(Cl)cnc1C(F)(F)F [Example 282, 5-chloro-N-((1r,4r)-4-((2-oxo-3-(pyridin-2-ylmethyl)-2,3-dihydro-1H-benzo[d]imidazol-1-yl)methyl)cyclohexyl)-2-(trifluoromethyl)nicotinamide]"
12,< 0.3 µM,"O=C(N[C@H]1CC[C@H](Cn2c(=O)n(Cc3ccccn3)c3ccccc32)CC1)c1cc(Cl)ccc1C(F)(F)F [Example 283, 5-chloro-N-((1r,4r)-4-((2-oxo-3-(pyridin-2-ylmethyl)-2,3-dihydro-1H-benzo[d]imidazol-1-yl)methyl)cyclohexyl)-2-(trifluoromethyl)benzamide]"
13,< 0.3 µM,"O=C(N[C@H]1CC[C@H](Cn2c(=O)n(Cc3cccnc3)c3ccccc32)CC1)c1cc(Cl)cnc1C(F)(F)F [Example 284, 5-chloro-N-((1r,4r)-4-((2-oxo-3-(pyridin-3-ylmethyl)-2,3-dihydro-1H-benzo[d]imidazol-1-yl)methyl)cyclohexyl)-2-(trifluoromethyl)nicotinamide]"
14,< 0.3 µM,"O=C(Cn1c(=O)n(C[C@H]2CC[C@H](NC(=O)c3cc(Cl)cnc3C(F)(F)F)CC2)c2ccccc21)c1ccccc1 [Example 285, 5-chloro-N-((1r,4r)-4-((2-oxo-3-(2-oxo-2-phenylethyl)-2,3-dihydro-1H-benzo[d]imidazol-1-yl)methyl)cyclohexyl)-2-(trifluoromethyl)nicotinamide]"
15,< 0.3 µM,"O=C(Cn1c(=O)n(C[C@H]2CC[C@H](NC(=O)c3cc(Cl)ccc3C(F)(F)F)CC2)c2ccccc21)c1ccccc1 [Example 286, 5-chloro-N-((1r,4r)-4-((2-oxo-3-(2-oxo-2-phenylethyl)-2,3-dihydro-1H-benzo[d]imidazol-1-yl)methyl)cyclohexyl)-2-(trifluoromethyl)benzamide]"
16,< 0.3 µM,"O=C(Cn1c(=O)n(C[C@H]2CC[C@H](NC(=O)c3cc(Cl)ccc3Cl)CC2)c2ccccc21)c1ccccc1 [Example 287, 2,5-dichloro-N-((1r,4r)-4-((2-oxo-3-(2-oxo-2-phenylethyl)-2,3-dihydro-1H-benzo[d]imidazol-1-yl)methyl)cyclo-hexyl)benzamide]"
17,< 0.3 µM,"O=C(N[C@H]1CC[C@H](Cn2c(=O)n(-c3ccccc3Cl)c3ncccc32)CC1)c1cc(Cl)cnc1C(F)(F)F [Example 288, 5-chloro-N-((1r,4r)-4-((3-(2-chlorophenyl)-2-oxo-2,3-dihydro-1H-imidazo[4,5-b]pyridin-1-yl)methyl)cyclo-hexyl)-2-(trifluoromethyl) nicotinamide]"
18,< 0.3 µM,"Cc1cnccc1-n1c(=O)n(C[C@H]2CC[C@H](NC(=O)c3cc(Cl)cnc3C(F)(F)F)CC2)c2ccccc21 [Example 289, 5-chloro-N-((1r,4r)-4-((3-(3-methylpyridin-4-yl)-2-oxo-2,3-dihydro-1H-benzo[d]imidazol-1-yl)methyl)cyclo-hexyl)-2-(trifluoromethyl) nicotinamide]"
19,< 0.3 µM,"CNC(=O)c1ccc(-n2c(=O)n(C[C@H]3CC[C@H](NC(=O)c4cc(Cl)cnc4C(F)(F)F)CC3)c3cc(F)ccc32)cn1 [Example 290, 5-(3-(((1r,4r)-4-(5-chloro-2-(trifluoromethyl)nico-tinamido)cyclohexyl)methyl)-5-fluoro-2-oxo-2,3-dihydro-1H-benzo[d]imidazol-1-yl)-N-methyl-picolinamide]"
20,< 0.3 µM,"N#Cc1ccccc1-n1c(=O)n(C[C@H]2CC[C@H](NC(=O)c3cc(Cl)cnc3C(F)(F)F)CC2)c2ccccc21 [Example 291, 5-chloro-N-((1r,4r)-4-((3-(2-cyanophenyl)-2-oxo-2,3-dihydro-1H-benzo[d]imidazol-1-yl)methyl)cyclo-hexyl)-2-(trifluoromethyl) nicotinamide]"
21,< 0.3 µM,"COc1ccc(C#N)c(-n2c(=O)n(C[C@H]3CC[C@H](NC(=O)c4cc(Cl)cnc4C(F)(F)F)CC3)c3ccccc32)c1 [Example 292, 5-chloro-N-((1r,4r)-4-((3-(2-cyano-5-methoxyphenyl)-2-oxo-2,3-dihydro-1H-benzo[d]imidazol-1-yl)methyl)cyclohexyl)-2-(trifluoromethyl)nicotinamide]"
22,< 0.3 µM,"N#Cc1ncccc1-n1c(=O)n(C[C@H]2CC[C@H](NC(=O)c3cc(Cl)cnc3C(F)(F)F)CC2)c2ccccc21 [Example 293, 5-chloro-N-((1r,4r)-4-((3-(2-cyanopyridin-3-yl)-2-oxo-2,3-dihydro-1H-benzo [d]imidazol-1-yl)methyl)cyclohexyl)-2-(trifluoro-methyl)nicotinamide]"
23,< 0.3 µM,"COCCn1nnc2cc(-n3c(=O)n(C[C@H]4CC[C@H](NC(=O)c5cc(Cl)cnc5C)CC4)c4ccccc43)ccc21 [Example 294, 5-chloro-N-((1r,4r)-4-((3-(1-(2-methoxyethyl)-1H-benzo[d][1,2,3]triazol-5-yl)-2-oxo-2,3-dihydro-1H-benzo[d]imidazol-1-yl)methyl)cyclohexyl)-2-methylnicotinamide]"
24,< 0.3 µM,"CCn1nc2ncc(-n3c(=O)n(C[C@H]4CC[C@H](NC(=O)c5cc(Cl)cnc5C)CC4)c4ccccc43)cc2c1C [Example 295, 5-chloro-N-((1r,4r)-4-((3-(2-ethyl-3-methyl-2H-pyrazolo[3,4-b]pyridin-5-yl)-2-oxo-2,3-dihydro-1H-benzo[d]imidazol-1-yl)methyl)cyclohexyl)-2-methylnicotinamide]"
